Test results taken from PMC8907848 (Frontiers in Chemistry, 2022).
Where two headings read alike, the source gives them in different places.

Columns and labels:
FIPV M^pro [1] = molecular target: T1, FIPV M^pro (Feline coronavirus, UniProt Q98VG9); assay: FRET-based cleavage assay with purified FIPV Mpro (Ki and IC50 determination); assay type: biochemical, FIPV WSU-79/1146
Procedure: A fluorescence resonance energy transfer (FRET)–based cleavage assay was performed using a synthetic peptide fluorescent substrate containing the cleavage site of FIPV M^pro [Abz-SVTLQ↓SG-Tyr (NO2)-R] as described previously ([Vuong et al., 2020]; [Vuong et al., 2021]). […] The enzymatic reactions using 1–500 μM of FRET substrate in activity buffer (25 mM Bis-Tris, 1 mM DTT, pH 7.0) were started with the addition of protease. For IC50 determination, 100 nM of FIPV M^pro was incubated with an inhibitor concentration range of 0.25 nM–100 µM in activity buffer. The reaction was started with 40 µM of FRET substrate. The fluorescence signal of the FRET peptide cleavage product was monitored at an emission wavelength of 420 nm with excitation at 320 nm, using a Cytation 5 Imaging Multi-Mode Reader (BioTek) for 7 min at 37°C. The kinetic data were analyzed using computer-fit calculation (Prism 9.0, GraphPad Software). […] The experiments were performed in triplicate.

SARS-CoV-2 M^pro = conditions: read-out: SARS-CoV-2 M^pro IC50; mean ± SEM, n = 3; ref Vuong et al. (2021); cited from earlier work
SARS-CoV M^pro = conditions: ref Arutyunova et al., 2021; cited from earlier work
FIPV M^pro [2] = molecular target: T1, FIPV M^pro; set-up: method as in Kim et al., 2012; conditions: ref Kim et al., 2012; cited from earlier work
FIP virus (FIPV) = system: FIP virus (FIPV); set-up: method as in Kim et al., 2016; Pedersen et al., 2018; conditions: experimentally induced and naturally occurring FIP; ref Kim et al., 2016; Pedersen et al., 2018; cited from earlier work
[3] = molecular target: Feline infectious peritonitis virus main protease (FIPV M^pro, FIPV WSU-79/1146) (feline infectious peritonitis virus (FIPV WSU-79/1146)); assay: crystal structure; FIPV M^pro at 10 mg/ml incubated with 5x molar excess of GC373 or GC376 (4°C, 2 h), sitting drop, room temperature; GC376: 2.0 M ammonium sulfate, 0.1 M Bis-Tris pH 5.5; GC373: 0.2 M calcium chloride, 0.1 M MES, 20% PEG 6000, pH 6.0

T1 sequence (Q98VG9 2904-3205): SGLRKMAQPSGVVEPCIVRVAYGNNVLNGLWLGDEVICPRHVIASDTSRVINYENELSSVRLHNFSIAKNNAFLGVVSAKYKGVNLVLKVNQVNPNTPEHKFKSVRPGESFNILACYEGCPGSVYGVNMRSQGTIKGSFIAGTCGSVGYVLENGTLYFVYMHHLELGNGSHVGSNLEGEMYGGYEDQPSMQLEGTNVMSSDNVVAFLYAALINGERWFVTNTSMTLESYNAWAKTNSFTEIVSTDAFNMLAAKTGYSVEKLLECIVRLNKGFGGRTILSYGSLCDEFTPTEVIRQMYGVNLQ

Compound	IC50 (FIPV M^pro [1])	IC50 (SARS-CoV-2 M^pro)	further results
O=C[C@H](C[C@@H]1CCNC1=O)NC(=O)[C@H](CC1CC1)NC(=O)OCc1ccccc1 [1a]	100 ± 70 nM		
CC(C)C[C@H](NC(=O)OCc1cccc(F)c1)C(=O)N[C@H](C=O)C[C@@H]1CCNC1=O [1d]	70 ± 10 nM	130 ± 40 nM	
CC(C)C[C@H](NC(=O)OCCc1cccc(Cl)c1)C(=O)N[C@H](C=O)C[C@@H]1CCNC1=O [1e]	130 ± 20 nM	150 ± 50 nM	
CC(C)C[C@H](NC(=O)O[C@@H](C)c1ccccc1)C(=O)N[C@H](C=O)C[C@@H]1CCNC1=O [1g]	430 ± 90 nM	270 ± 90 nM	
O=C(N[C@@H](CC1CC1)C(=O)N[C@@H](C[C@@H]1CCNC1=O)C(O)S(=O)(=O)O)OCc1cccc(F)c1 (some centres unmarked) [2c]	30 ± 10 nM	70 ± 10 nM	
O=C(N[C@@H](CC1CC1)C(=O)N[C@@H](C[C@@H]1CCNC1=O)C(O)S(=O)(=O)O)OCCc1cccc(Cl)c1 (some centres unmarked) [2d]	50 ± 20 nM		
COc1cccc2[nH]c(C(=O)N[C@@H](CC3CC3)C(=O)N[C@@H](C[C@@H]3CCNC3=O)C(O)S(=O)(=O)O)cc12 (some centres unmarked) [2e]	60 ± 20 nM		
CC(C)CC(NC(=O)OCc1ccccc1)C(=O)NC(C=O)CC1CCNC1=O (centres unmarked) [GC373]			Ki against SARS-CoV Mpro (in words) (SARS-CoV M^pro): nanomolar range
CC(C)CC(NC(=O)OCc1ccccc1)C(=O)NC(CC1CCNC1=O)C(O)S(=O)(=O)O (centres unmarked) [GC376, reference compound]			IC50 against FIPV Mpro (in words) (FIPV M^pro [2]): sub-micromolar; IC50 (FIPV M^pro [1]; 100 nM FIPV Mpro, 40 µM FRET substrate, 37°C, mean ± SEM, n = 3, read-out: FIPV M^pro IC50): 130 ± 20 nM; Ki (FIPV M^pro [1]; read-out: Calculated Ki): 2.1 nM; Effect on progression of FIP in cats (FIP virus (FIPV)): successful in reversing the progression
Feline infectious peritonitis virus main protease (FIPV M^pro, FIPV WSU-79/1146) (enzyme)			stoichiometry N [3]: 2
